{"source": "paper PMC4620497", "about": "(Scientific Reports, 2015)", "key": {"EGFR(G719S)": {"target": "T1, EGFR(G719S) (Homo sapiens, UniProt P00533, G719S)", "T1 construct": "purchased DiscoveRx KINOMEscan (Ambit Biosciences)", "T1 sequence (P00533 25-1210 G719S)": "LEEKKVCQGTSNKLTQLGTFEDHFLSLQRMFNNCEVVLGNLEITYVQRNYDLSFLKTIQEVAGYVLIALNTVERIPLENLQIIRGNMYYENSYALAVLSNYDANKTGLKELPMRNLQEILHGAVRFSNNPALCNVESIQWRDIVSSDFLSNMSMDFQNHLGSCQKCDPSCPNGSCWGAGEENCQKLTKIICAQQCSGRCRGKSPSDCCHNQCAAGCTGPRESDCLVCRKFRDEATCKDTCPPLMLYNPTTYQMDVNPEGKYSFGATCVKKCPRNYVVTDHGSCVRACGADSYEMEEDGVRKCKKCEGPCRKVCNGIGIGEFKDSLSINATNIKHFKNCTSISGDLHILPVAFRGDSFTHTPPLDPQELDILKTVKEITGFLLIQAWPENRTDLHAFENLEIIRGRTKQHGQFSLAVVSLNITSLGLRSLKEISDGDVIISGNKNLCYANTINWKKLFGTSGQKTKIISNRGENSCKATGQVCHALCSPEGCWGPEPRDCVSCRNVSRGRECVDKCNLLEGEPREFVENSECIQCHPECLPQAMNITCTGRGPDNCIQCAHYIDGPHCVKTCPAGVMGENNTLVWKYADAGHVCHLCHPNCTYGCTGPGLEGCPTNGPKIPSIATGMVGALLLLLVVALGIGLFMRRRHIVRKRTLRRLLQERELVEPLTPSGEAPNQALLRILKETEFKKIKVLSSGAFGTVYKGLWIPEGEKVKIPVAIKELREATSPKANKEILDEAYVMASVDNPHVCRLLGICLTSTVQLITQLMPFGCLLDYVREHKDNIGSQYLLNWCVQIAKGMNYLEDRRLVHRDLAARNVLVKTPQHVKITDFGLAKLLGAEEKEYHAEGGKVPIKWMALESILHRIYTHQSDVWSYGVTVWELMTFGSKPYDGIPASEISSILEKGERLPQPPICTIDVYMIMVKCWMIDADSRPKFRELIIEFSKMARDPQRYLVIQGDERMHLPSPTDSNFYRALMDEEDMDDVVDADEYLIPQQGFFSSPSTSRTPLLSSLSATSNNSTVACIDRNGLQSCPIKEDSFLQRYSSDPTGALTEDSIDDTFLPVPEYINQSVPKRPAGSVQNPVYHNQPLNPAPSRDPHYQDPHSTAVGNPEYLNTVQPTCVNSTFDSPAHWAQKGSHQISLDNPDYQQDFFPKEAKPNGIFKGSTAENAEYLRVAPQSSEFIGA", "experiment": "KINOMEscan panel screen", "type": "binding", "settings": "read-out: Percent Control(%)"}, "MEK2": {"target": "T2, MEK2 (Homo sapiens, UniProt P36507)", "T2 construct": "purchased DiscoveRx KINOMEscan (Ambit Biosciences)", "experiment": "KINOMEscan panel screen", "type": "binding", "settings": "read-out: Percent Control(%)"}, "CAMK4": {"target": "T3, CAMK4 (Homo sapiens, UniProt Q16566)", "T3 construct": "purchased DiscoveRx KINOMEscan (Ambit Biosciences)", "T3 sequence (Q16566 1-473)": "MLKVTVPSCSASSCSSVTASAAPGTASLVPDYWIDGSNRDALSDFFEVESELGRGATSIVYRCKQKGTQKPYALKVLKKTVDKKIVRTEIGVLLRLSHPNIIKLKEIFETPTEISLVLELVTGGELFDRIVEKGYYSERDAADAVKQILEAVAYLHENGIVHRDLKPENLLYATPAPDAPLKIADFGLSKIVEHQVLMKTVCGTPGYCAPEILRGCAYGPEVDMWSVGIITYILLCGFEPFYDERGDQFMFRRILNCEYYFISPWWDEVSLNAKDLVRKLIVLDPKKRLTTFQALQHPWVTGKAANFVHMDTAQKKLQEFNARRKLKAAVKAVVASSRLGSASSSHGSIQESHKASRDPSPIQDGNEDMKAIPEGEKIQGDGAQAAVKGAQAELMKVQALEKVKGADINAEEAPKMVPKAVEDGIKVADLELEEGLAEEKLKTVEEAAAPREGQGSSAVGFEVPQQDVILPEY", "experiment": "KINOMEscan kinase binding assay (Kd)", "settings": "Table S1", "from_the_text": "(§1) In vitro KINOMEscan kinase binding assays (Ambit Biosciences) were employed to determine the binding affinity (Kd) of compounds[41][42].\n(§2) compound 1. The y have very similar spectrum of activity in enz ymatic and cellular\n(§3) levels. Both of them have the ability to inhibit Wnt/β -catenin si gnalin g. However, in […]"}, "CHEK1": {"target": "T4, CHEK1 (Homo sapiens, UniProt O14757)", "T4 construct": "purchased DiscoveRx KINOMEscan (Ambit Biosciences)", "T4 sequence (O14757 1-476)": "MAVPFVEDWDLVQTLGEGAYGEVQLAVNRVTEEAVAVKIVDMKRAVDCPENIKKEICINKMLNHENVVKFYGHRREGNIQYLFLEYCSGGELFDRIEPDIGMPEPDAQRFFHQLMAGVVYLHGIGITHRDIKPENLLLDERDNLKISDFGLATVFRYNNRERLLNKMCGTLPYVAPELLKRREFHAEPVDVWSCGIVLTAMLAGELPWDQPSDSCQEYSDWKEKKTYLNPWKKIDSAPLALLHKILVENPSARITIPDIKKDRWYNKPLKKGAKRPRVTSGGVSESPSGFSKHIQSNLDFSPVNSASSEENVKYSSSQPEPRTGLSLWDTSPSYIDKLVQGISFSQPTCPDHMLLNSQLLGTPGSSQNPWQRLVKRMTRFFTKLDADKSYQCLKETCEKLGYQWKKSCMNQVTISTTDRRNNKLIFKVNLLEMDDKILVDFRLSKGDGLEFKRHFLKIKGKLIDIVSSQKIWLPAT", "experiment": "KINOMEscan kinase binding assay (Kd)", "settings": "Table S1", "from_the_text": "as §1, §2, §3"}, "DLK": {"target": "T5, DLK (Homo sapiens, UniProt Q12852)", "T5 sequence (Q12852 1-859)": "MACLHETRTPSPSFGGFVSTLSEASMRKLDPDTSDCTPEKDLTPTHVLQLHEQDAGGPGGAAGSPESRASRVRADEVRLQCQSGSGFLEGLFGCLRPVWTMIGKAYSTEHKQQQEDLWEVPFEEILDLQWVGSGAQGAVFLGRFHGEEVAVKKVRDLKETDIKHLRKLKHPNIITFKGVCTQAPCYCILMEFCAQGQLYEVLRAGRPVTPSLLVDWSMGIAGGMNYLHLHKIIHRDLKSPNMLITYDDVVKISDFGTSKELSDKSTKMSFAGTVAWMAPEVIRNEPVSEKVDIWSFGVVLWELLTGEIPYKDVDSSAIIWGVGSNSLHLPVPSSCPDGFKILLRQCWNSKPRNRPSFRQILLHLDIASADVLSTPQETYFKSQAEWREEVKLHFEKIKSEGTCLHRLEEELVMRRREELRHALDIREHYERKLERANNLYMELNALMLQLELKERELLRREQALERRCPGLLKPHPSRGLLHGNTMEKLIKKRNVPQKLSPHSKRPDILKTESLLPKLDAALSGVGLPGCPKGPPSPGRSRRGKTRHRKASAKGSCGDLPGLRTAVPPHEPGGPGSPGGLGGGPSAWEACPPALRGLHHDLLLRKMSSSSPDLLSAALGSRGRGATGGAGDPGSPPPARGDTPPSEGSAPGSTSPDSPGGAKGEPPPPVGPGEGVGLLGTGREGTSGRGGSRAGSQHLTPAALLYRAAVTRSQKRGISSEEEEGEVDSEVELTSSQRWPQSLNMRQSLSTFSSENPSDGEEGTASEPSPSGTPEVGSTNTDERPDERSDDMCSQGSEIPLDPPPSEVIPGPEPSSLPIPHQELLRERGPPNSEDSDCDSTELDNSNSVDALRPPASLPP", "experiment": "KINOMEscan kinase binding assay (Kd)", "settings": "Table S1", "from_the_text": "as §1, §2, §3"}, "DMPK": {"target": "T6, DMPK (Homo sapiens, UniProt Q09013)", "T6 construct": "purchased DiscoveRx KINOMEscan (Ambit Biosciences)", "T6 sequence (Q09013 1-629)": "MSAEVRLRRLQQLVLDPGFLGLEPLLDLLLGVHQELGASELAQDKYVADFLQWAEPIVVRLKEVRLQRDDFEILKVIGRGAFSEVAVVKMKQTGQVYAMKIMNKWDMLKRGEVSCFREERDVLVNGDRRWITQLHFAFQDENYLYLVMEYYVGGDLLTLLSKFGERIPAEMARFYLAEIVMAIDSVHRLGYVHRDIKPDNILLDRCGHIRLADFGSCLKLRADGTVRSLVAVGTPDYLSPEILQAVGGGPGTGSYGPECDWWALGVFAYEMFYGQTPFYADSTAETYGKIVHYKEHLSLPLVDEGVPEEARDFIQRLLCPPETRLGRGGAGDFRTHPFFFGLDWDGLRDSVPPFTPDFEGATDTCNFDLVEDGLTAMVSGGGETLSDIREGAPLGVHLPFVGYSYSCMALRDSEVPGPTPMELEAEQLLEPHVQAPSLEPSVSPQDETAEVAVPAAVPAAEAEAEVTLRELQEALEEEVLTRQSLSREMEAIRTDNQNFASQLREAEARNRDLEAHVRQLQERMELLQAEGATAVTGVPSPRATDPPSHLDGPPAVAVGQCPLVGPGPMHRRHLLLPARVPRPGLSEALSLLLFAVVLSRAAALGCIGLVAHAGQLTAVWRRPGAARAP", "experiment": "KINOMEscan kinase binding assay (Kd)", "settings": "Table S1", "from_the_text": "as §1, §2, §3"}, "ERBB4": {"target": "T7, ERBB4 (Homo sapiens, UniProt Q15303)", "T7 construct": "purchased DiscoveRx KINOMEscan (Ambit Biosciences)", "T7 sequence (Q15303 26-1308)": "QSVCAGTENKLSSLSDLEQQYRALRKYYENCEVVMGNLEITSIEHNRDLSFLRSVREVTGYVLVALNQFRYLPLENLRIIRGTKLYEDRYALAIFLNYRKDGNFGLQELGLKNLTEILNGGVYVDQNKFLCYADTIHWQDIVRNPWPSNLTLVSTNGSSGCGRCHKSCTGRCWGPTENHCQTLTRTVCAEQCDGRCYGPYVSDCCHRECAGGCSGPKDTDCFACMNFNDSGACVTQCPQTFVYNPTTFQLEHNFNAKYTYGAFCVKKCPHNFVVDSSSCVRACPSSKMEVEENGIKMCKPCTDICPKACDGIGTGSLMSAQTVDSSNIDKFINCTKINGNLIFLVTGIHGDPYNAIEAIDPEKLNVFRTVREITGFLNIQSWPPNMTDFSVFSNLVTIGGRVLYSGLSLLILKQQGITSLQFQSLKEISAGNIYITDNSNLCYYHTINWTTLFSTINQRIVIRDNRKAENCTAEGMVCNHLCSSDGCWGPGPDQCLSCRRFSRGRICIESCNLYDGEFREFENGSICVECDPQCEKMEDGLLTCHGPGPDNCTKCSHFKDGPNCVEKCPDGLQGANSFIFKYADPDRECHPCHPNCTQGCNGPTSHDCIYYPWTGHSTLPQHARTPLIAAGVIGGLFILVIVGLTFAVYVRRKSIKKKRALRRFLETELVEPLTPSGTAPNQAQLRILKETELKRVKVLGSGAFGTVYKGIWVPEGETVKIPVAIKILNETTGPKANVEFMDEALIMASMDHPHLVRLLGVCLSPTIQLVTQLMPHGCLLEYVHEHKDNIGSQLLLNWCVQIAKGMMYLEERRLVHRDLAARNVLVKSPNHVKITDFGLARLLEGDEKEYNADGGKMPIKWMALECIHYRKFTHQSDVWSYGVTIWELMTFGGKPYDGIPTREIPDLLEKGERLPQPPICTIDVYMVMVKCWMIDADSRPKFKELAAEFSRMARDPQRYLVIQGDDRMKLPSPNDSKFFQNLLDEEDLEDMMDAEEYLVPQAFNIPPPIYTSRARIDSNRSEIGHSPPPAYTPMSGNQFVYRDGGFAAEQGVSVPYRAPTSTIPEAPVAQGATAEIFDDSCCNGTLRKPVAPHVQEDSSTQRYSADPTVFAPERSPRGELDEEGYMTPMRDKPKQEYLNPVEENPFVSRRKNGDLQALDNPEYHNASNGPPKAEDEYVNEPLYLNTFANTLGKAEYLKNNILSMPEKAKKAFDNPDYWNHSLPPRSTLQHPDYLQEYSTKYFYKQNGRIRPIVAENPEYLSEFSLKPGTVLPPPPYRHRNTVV", "experiment": "KINOMEscan kinase binding assay (Kd)", "settings": "Table S1", "from_the_text": "as §1, §2, §3"}, "ERN1": {"target": "ERN1 (Homo sapiens, UniProt O75460)", "sequence (O75460 19-977)": "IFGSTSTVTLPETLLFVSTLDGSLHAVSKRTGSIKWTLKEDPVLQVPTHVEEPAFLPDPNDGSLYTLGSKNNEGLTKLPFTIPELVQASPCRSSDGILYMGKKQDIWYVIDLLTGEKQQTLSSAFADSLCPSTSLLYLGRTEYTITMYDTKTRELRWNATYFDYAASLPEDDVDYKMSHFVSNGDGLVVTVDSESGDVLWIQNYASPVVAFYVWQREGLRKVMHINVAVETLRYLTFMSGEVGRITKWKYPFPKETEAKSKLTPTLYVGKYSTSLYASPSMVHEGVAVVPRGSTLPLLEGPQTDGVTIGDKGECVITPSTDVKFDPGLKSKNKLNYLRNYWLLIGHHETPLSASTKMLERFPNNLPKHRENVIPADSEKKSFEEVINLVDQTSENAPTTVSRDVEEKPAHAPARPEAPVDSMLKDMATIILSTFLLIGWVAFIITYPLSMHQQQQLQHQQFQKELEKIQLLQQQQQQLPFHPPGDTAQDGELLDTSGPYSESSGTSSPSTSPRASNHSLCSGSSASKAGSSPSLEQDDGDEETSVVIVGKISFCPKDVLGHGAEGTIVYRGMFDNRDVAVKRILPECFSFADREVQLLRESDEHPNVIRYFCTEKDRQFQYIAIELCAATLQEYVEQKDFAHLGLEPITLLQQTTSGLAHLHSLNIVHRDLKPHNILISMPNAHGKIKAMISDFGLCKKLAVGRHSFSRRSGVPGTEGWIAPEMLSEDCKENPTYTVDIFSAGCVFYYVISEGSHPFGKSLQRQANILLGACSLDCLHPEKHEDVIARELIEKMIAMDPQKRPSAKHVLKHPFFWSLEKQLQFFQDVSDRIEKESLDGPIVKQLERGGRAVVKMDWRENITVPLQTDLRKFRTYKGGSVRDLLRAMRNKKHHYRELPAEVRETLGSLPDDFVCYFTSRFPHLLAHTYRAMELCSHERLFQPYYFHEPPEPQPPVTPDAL", "experiment": "KINOMEscan kinase binding assay (Kd)", "settings": "Table S1", "from_the_text": "as §1, §2, §3"}, "IGF1R": {"target": "T8, IGF1R (Homo sapiens, UniProt P08069)", "T8 construct": "DNA tag (qPCR read-out); purchased Ambit Biosciences (KINOMEscan service)", "T8 sequence (P08069 31-1367)": "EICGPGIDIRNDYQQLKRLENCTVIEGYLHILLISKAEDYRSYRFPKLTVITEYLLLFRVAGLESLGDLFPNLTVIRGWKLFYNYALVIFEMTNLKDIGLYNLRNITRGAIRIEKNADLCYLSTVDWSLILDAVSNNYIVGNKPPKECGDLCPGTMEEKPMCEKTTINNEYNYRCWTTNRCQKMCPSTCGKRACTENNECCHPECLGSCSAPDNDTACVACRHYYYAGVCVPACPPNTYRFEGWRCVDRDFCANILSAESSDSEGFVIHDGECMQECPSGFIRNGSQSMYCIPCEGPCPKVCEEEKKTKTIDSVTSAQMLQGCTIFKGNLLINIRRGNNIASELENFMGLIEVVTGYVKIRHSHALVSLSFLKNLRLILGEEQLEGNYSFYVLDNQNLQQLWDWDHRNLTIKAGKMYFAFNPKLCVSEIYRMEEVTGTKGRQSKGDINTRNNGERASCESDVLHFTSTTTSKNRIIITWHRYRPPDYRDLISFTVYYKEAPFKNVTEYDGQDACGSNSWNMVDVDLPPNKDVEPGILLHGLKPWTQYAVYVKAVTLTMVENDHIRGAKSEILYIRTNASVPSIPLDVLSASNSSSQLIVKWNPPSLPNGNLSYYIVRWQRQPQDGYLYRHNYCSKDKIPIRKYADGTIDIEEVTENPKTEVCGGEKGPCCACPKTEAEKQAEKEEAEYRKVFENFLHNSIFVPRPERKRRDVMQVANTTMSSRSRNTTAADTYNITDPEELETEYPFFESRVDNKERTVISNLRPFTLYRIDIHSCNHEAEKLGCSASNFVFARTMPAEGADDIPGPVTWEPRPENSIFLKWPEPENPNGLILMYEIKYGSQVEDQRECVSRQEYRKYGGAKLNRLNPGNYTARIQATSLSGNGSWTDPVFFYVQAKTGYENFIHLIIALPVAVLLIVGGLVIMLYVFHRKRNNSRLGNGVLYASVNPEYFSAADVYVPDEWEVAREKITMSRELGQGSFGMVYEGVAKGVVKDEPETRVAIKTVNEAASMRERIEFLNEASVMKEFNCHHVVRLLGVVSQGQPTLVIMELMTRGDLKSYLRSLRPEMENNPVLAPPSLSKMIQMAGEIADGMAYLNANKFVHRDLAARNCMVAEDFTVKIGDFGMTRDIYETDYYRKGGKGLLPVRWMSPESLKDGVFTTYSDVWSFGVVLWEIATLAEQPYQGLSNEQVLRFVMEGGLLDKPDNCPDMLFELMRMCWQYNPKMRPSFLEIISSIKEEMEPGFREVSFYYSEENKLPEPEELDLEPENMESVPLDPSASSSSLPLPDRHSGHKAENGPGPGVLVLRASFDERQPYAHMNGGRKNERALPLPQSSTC", "experiment": "KINOMEscan kinase binding assay (Kd)", "settings": "Table S1", "from_the_text": "as §1, §2, §3"}}, "data": [{"molecule": "CC(C)(C)c1cc(NC(=O)Nc2ccc(Oc3ncnc4[nH]ncc34)c(F)c2)no1", "note": "[SKLB-677, 1-(4-(1H-pyrazolo[3,4-d]pyrimidin-4-yloxy)-3-fluorophenyl)-3-(5-tert-butylisoxazol-3-yl)urea]", "values": [{"measurement": "remaining binding at 10 µM", "setting": "EGFR(G719S)", "result": 47, "unit": "%"}, {"measurement": "remaining binding at 10 µM", "setting": "MEK2", "result": 5.9, "unit": "%"}, {"measurement": "Kd", "setting": "CAMK4", "result": "> 10", "unit": "µM"}, {"measurement": "Kd", "setting": "CHEK1", "result": "> 10", "unit": "µM"}, {"measurement": "Kd", "setting": "DLK", "result": "> 10", "unit": "µM"}, {"measurement": "Kd", "setting": "DMPK", "result": "> 10", "unit": "µM"}, {"measurement": "Kd", "setting": "ERBB4", "result": "> 10", "unit": "µM"}, {"measurement": "Kd", "setting": "ERN1", "result": "> 10", "unit": "µM"}, {"measurement": "Kd", "setting": "IGF1R", "result": "> 10", "unit": "µM"}]}]}
